According to patent US20110105515A1, “TARGETING THE ONCOPROTEIN NUCLEOPHOSMIN” (President and Fellows of Harvard College, priority 2007, published 2011):
Entries after “also recorded” stand apart in the source; their conditions may differ.

How the values were obtained:
p53 [1] = experiment: Effect of (+)-avrainvillamide incubation on p53/nucleophosmin, LNCaP cells (Western-blot); assay type: cell-based, human; conditions: 24 h
Method: (§1) Four 6-well plates (two for each cell line) were charged with 6 mL per well of cell suspension at 2×10^5 cells/mL. […] The following day, stock solutions of (+)-avrainvillamide (1) in fresh cell culture medium were prepared as indicated below:
(§2) To each 6-mL sample, a 200-μL aliquot of the appropriate stock solution was added, resulting in a final concentration of 0-4 μM (+)-avrainvillamide (1). The samples were returned to the incubator (37° C., 5% CO2) for 24 h.
(§3) The cells were resuspended in 1 mL PBS and mixed thoroughly. A 500-μL aliquot from each sample was transferred to a fresh 1.5-mL centrifuge tube. All the samples were centrifuged (5 min at 500×g) and the supernatant was discarded. The resulting 20 samples (10 samples of T-47D cells, treated with 0-4 μM (+)-avrainvillamide, and 10 samples of LNCaP cells, treated with 0-4 μM (+)-avrainvillamide (1), where each sample contained the number of cells from 1 well of a 6-well plate) were separated into two groups. One group of samples was lysed in RIPA buffer (see below) to prepare a series of whole-cell lysates. The other group of samples was first treated with sucrose-hypotonic buffer to prepare a series of cytosolic lysates. The remaining pellets were washed and treated with RIPA buffer to prepare a series of nuclear-enriched lysates (see below).

LNCaP and T-47D cells = experiment: Western blot for apoptotic markers in LNCaP and T-47D cells; assay type: cell-based, human
peroxiredoxin 1 (PRX1) = target: T1, peroxiredoxin 1 (PRX1) (Homo sapiens, UniProt Q06830); experiment: Competitive binding affinity-isolation with probe 5 in T-47D lysates, peroxiredoxin 1; conditions: 10 μM probe 5, 100 μM inhibitor
T1 construct: endogenous in cells; host or cells: T-47D lysate
Description: (§4) The supernatant was discarded.
(§5) See above for solution preparation.

[2] = test system: MALME-3M and MALME-3 cells; experiment: Selectivity assay, malignant melanoma MALME-3M versus fibroblast MALME-3; assay type: cell-based; conditions: for selectivity factor, melanoma cells relative to fibroblast control (LC25, 25 percent cell death, estimate of GI50): MALME-3M versus MALME-3
Method: […]. A cell line from a healthy fibroblast from the same patient has also been deposited with the American Type Cell Culture Corporation (ATCC). Fresh stockes of both MALME-3M and MALME-3 from ATCC. Avrainvillamide was test against the two cells lines at the same time, taking all possible precautions to ensure that both sets of samples were treated identically. […] As a measure of cytotoxicity and antiproliferative activity, we calculated both LC50 and LC25 (as an estimate of GI50).
The 9.7-fold selectivity at 25 percent cell death is representative of at least a modest degree of selectivity. For comparison, cytochalsine B and geldanamycin were analyzed in identical experiments. Cytochalasine B is a non-selective cytotoxic agent for which a selectivity factor of 0.2 at 25 percent cell death was observed. Geldanamycin is known to be a potent, selective inhibitor of tumor cell growth for which a selectivity factor of >100 at 25 percent cell death was observed.

p53 [3] = experiment: Effect of (+)-avrainvillamide incubation on p53/nucleophosmin, T-47D cells (Western-blot); assay type: cell-based, human; conditions: 24 h
Method: as §1, §2, §3

HeLa S3 cells [4] = experiment: Apoptosis in HeLa S3 cells (Yo-Pro cell permeability, annexin-binding); assay type: cell-based, human; conditions: Yo-Pro cell permeability and annexin-binding experiments
nucleophosmin = nucleophosmin (Homo sapiens, UniProt P06748); experiment: Competitive binding affinity-isolation with probe 5 in T-47D lysates, nucleophosmin
proteins of T-47D cells = experiment: Affinity-isolation from T-47D cells, LC-MS/MS analysis of proteins; conditions: narrower region of the gel; equal concentrations
[5] = previous report: 48-h incubation, MTS/PMS; cited from earlier work
T-47D cells = experiment: Cell cycle effects in T-47D cells; assay type: cell-based, human
HeLa S3 cells [6] = experiment: Transfection/apoptosis experiments in nucleophosmin-depleted HeLa S3 cells; assay type: cell-based, human; conditions: 24 h, Yo-Pro iodide/propidium iodide flow cytometry
Method: The concentration of the cell suspension was determined using a hemacytometer, and a suspension of 1×10^5 cells/mL was prepared.
A siRNA targeting NPM1.1 (Applied Biosystems, Cat. No. AM16708; ID 143640; 11.4 μL from a 50 μM stock solution) was added to Opti-MEM (938.6 μL). At the same time, a control siRNA (Applied Biosystems, Cat. No. AM4611; 11.4 μL from a 50 μM stock) was similarly added to Opti-MEM (938.6 μL).
The culture flasks were rinsed with an additional 5 mL medium, which was likewise added to the centrifuge tubes.
The concentration of the cell suspensions was determined using a hemacytometer. Over the course of the 2 d transfection period, both the transfected and mock-transfected cells grew ˜4-fold.
12-well plates were charged with 3 mL per well of suspensions of the transfected or mock-transfected cells, at 2.5×10^4 cells per mL. […] The following day, solutions of cell culture medium containing (+)-avrainvillamide or vehicle control were prepared. 500-μL aliquots of these solutions were added to the 3-mL samples. The treated samples were returned to the incubator (37° C., 5% CO2) for 24 h.
The supernatant was discarded, and the samples were cooled on ice. Apoptosis detection buffer (500 μL; see above for preparation) was added to each sample. […]
Each sample was analyzed on an LSRII flow cytometer, with 20,000 events recorded per sample. […]

exportin-1 (XPO1) = target: T2, exportin-1 (XPO1) (Homo sapiens, UniProt O14980); experiment: Competitive binding affinity-isolation with probe 5 in T-47D lysates, exportin-1; conditions: 10 μM probe 5, 100 μM inhibitor
T2 construct: endogenous in cells; host or cells: T-47D lysate
Description: as §4, §5

Compound: CC1(C)C=Cc2c(ccc3c2[N+]([O-])=C2C3=C[C@@]34NC(=O)C5(CCCN5C3=O)CC4C2(C)C)O1 (single isomer, unassigned; (+)) [compound 1, (+)-Avrainvillamide]
- concentration giving a substantial increase in cellular p53 (p53 [1]): 500 nM
- apoptotic markers (Western blot) (LNCaP and T-47D cells): appearance of pro-apoptotic factors
- blocking of the binding of probe 5 to peroxiredoxin 1 (PRX1) (peroxiredoxin 1 (PRX1)): capable of blocking
- activity against MALME-3M cells ([2]; MALME-3M): nanomolar activity
- selectivity factor, melanoma cells relative to fibroblast control (LC25, 25 percent cell death, estimate of GI50) ([2]; listed as Avrainvillamide): 9.7
- selectivity factor, melanoma cells relative to fibroblast control (LC25, 25 percent cell death, estimate of GI50) ([2]; listed as avrainvillamide): ~10
- cellular p53 at the highest concentration (p53 [3]; 4 μM): reduction in cellular p53
- concentration giving a substantial increase in cellular p53 (p53 [3]; Western-blot): 500 nM
- cell death in HeLa S3 cells (HeLa S3 cells [4]): cell death through apoptosis
- binding of nucleophosmin to probe 5 in the presence of a 10-fold higher concentration of competitor (nucleophosmin; 10 μM probe 5, 100 μM competitor, nuclear-enriched and whole-cell T-47D lysates): inhibited; also recorded: most effective
- concentration required for inhibition of probe 5-nucleophosmin binding (nucleophosmin; T-47D lysate): 100 µM
- inhibition of binding of nucleophosmin to probe 5 by analogues (FIG. 4) (nucleophosmin; T-47D nuclear-enriched lysate): inhibited essentially equivalently
- detection of nucleophosmin by LC-MS/MS after affinity isolation (proteins of T-47D cells): not detected
- fold more potent than the unnatural enantiomer (antiproliferative activity) [5]: ~9 fold
- cell cycle accumulatory effects (T-47D cells): immediate decrease in the number of cells in S-phase, followed by an increase in G2/M cells
- apoptosis in HeLa S3 cells reduced in nucleophosmin (siRNA) relative to mock-transfected cells (HeLa S3 cells [6]): enhanced sensitivity
- blocking of the binding of probe 5 to exportin-1 (XPO1) (exportin-1 (XPO1)): capable of blocking
